According to patent US12227500B2, “Substituted pyrrolo[2,3-b]pyridines for suppressing toxic endoplasmic reticulum stress” (THE TRUSTEES OF COLUMBIA UNIVERSITY IN THE CITY OF NEW YORK, priority 2018, dated 2025):
Read-outs that look alike come from different tables or passages of the source.

Tests used:
MLK1/MAP3K9 = target: T1, MLK1/MAP3K9 (Homo sapiens, UniProt P80192); assay: Radiolabeled ATP kinase assay (Reaction Biology Corp.), MLK1; format: biochemical; conditions: [Cmpd] 0.1 μM, 10 μM ATP
T1 construct: purchased Reaction Biology Corp
Protocol: (§1) Meanwhile, the same analogs were analyzed in a radiolabeled ATP assay (10 μM ATP; Reaction Biology Corp.) to compare the extent to which they could inhibit the activity of HGK, MLK1, or MLK3 in a cell-free environment (Table S3 and S4).

HGK/MAP4K4 = HGK/MAP4K4 (Homo sapiens, UniProt O95819); assay: Radiolabeled ATP kinase assay (Reaction Biology Corp.), HGK; format: biochemical; set-up: purchased Reaction Biology Corp; conditions: 10 μM ATP, read-out: % Enzyme Activity (relative to DMSO controls), HGK/MAP4K4, Data 1; for remaining activity at 0.025 µM: [Cmpd] 0.025 μM; for remaining activity at 0.1 µM: [Cmpd] 0.1 μM
Protocol: as §1

[1] = system: human ES motor neurons carrying the ALS-causing SOD1^A4V mutation; assay: cells; format: cell-based; conditions: 72 h, 72 h; for EC50 / Emax: CPA 33 μM; for viability at 1 µM: CPA (33 μM) + compound (1 μM), read-out: Motor Neuron Survival, % untreated; for Emax: read-out: Emax (MN survival % untreated)
Protocol: Next, survival assays were performed with all the analogs at once to generate a low-variability dataset. All compounds were evaluated at concentrations ranging from 0.1-3.0 μM (five-point dilution) in three technical replicates and two biological replicates.

MLK3/MAP3K11 = target: T2, MLK3/MAP3K11 (Homo sapiens, UniProt Q16584); assay: Radiolabeled ATP kinase assay (Reaction Biology Corp.), MLK3; format: biochemical; conditions: [Cmpd] 0.1 μM; 10 μM ATP
T2 construct: purchased Reaction Biology Corp
Protocol: as §1

[2] = read-out: % Enzyme Activity Remaining (relative to DMSO controls), MLK1/MAP3K9, Data 1
[3] = read-out: % Enzyme Activity Remaining (relative to DMSO controls), MLK1/MAP3K9, Data 2
[4] = Homo sapiens, Neuron, read-out: EC50

T2 sequence (Q16584 whole entry): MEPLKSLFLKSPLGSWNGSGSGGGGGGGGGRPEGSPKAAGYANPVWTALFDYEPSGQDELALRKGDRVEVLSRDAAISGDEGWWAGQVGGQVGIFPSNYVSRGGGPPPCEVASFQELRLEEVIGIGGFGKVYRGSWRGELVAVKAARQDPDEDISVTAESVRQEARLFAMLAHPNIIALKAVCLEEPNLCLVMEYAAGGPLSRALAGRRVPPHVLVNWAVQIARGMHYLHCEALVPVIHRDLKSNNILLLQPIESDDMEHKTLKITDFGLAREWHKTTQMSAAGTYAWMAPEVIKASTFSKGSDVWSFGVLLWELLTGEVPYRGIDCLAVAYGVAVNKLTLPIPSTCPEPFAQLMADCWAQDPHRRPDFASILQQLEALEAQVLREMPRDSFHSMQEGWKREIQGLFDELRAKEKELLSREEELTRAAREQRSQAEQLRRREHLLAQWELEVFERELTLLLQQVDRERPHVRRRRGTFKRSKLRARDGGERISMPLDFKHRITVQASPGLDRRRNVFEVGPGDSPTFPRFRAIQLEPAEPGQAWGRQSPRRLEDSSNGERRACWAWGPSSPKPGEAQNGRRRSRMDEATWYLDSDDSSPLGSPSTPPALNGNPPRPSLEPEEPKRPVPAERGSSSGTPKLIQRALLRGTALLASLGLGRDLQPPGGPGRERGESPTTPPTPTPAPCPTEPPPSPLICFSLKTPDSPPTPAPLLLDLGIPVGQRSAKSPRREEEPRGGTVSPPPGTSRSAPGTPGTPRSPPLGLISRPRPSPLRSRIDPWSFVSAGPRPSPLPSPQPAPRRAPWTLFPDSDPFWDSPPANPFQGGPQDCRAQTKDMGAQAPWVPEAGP
Sequence of HGK/MAP4K4 (O95819 whole entry): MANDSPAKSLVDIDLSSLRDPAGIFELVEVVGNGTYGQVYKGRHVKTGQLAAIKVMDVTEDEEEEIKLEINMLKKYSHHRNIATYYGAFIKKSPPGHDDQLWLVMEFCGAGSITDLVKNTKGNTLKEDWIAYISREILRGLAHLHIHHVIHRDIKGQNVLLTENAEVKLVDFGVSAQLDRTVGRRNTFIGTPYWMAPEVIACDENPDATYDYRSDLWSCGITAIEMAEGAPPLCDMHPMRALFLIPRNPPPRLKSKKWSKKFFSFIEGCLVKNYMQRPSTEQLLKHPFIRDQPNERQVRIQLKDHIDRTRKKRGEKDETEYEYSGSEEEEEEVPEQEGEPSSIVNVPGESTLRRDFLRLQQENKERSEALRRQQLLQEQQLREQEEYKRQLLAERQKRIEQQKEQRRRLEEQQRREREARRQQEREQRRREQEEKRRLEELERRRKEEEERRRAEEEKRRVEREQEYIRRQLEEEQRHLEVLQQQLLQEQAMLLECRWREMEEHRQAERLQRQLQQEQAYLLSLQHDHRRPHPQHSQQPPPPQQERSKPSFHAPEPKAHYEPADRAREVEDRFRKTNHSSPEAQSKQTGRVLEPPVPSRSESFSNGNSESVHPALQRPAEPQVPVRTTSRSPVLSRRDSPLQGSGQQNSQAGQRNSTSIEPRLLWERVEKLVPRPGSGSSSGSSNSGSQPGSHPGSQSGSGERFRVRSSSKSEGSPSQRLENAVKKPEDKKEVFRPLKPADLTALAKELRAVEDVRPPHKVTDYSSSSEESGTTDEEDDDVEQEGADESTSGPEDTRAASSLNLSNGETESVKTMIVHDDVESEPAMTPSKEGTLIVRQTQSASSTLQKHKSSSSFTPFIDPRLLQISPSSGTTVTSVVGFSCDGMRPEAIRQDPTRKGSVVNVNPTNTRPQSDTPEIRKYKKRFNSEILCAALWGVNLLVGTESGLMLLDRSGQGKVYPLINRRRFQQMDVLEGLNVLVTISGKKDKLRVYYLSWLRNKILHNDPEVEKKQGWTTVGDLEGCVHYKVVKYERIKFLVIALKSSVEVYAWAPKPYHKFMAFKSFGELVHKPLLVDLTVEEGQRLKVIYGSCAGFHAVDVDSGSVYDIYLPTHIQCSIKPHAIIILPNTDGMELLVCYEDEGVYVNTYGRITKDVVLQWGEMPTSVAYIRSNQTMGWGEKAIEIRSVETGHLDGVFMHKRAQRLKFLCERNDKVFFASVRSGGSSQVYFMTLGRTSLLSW
T1 sequence (P80192 whole entry): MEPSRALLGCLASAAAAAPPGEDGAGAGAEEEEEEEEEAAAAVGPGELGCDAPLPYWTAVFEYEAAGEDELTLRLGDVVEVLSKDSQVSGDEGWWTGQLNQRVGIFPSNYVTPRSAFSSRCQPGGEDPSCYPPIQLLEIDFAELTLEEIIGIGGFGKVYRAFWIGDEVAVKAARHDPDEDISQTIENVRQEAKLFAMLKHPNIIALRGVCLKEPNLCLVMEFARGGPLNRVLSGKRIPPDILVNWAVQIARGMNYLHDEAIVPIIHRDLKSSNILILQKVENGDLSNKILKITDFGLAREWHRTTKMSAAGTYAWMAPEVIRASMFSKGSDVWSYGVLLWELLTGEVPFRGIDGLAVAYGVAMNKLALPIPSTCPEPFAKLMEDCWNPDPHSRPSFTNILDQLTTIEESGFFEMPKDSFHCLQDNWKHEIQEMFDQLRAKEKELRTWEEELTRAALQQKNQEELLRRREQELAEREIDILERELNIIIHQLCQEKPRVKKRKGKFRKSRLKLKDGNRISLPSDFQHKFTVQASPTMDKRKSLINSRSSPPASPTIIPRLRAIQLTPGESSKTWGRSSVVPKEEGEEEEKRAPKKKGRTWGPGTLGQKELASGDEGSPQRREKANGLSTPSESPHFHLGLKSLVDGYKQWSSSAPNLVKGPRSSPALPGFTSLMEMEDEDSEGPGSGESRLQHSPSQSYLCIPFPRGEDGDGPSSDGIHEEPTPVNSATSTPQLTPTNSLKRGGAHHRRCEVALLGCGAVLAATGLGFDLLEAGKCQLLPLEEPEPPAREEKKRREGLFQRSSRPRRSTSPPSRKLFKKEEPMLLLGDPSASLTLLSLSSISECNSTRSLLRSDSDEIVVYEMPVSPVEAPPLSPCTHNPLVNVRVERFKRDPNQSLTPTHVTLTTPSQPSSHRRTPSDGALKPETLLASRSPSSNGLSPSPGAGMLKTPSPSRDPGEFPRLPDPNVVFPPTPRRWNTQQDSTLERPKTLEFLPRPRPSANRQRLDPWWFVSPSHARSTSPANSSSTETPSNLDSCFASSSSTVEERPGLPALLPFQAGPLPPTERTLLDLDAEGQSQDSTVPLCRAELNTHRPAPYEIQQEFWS

Structure (SMILES) | remaining activity at 0.1 µM (MLK1/MAP3K9; [2]) | remaining activity at 0.1 µM (MLK1/MAP3K9; [3]) | remaining activity at 0.025 µM (HGK/MAP4K4) | remaining activity at 0.1 µM (HGK/MAP4K4) | EC50 [1, 4] | viability at 1 µM ([1]; Homo sapiens, Neuron) | Emax ([1]; Homo sapiens, Neuron) | % Enzyme Activity Remaining (relative to DMSO controls), MLK3/MAP3K11, Data 1 (MLK3/MAP3K11) | % Enzyme Activity Remaining (relative to DMSO controls), MLK3/MAP3K11, Data 2 (MLK3/MAP3K11) | EC50 [1]
CN1CCN(Cc2ccc(-c3cnc4[nH]cc(-c5ccccc5)c4c3)cc2)CC1 [Compound 7ac, 5-(4-((4-Methylpiperazin-1-yl)methyl)phenyl)-3-phenyl-1H-pyrrolo[2,3-b]pyridine] | 60.8% | 57.7% | 31.9% | 6.69% | 774 nM | 75.9% | 110% | 42.00% | 43.30% | –
CN1CCN(Cc2ccc(-c3cnc4[nH]cc(-c5ccc(F)c(C(=O)O)c5)c4c3)cc2)CC1 [Compound 7i, 2-Fluoro-5-(5-(4-((4-methylpiperazin-1-yl)methyl)phenyl)-1H-pyrrolo[2,3-b]pyridin-3-yl)benzoic acid] | 80.2% | 79.4% | 85.3% | 54.6% | – | 7.82% | 13.3% | 57.91% | 50.75% | Ambiguous
CN1CCN(Cc2ccc(-c3cnc4[nH]cc(-c5cccc(C(F)(F)F)c5)c4c3)cc2)CC1 [Compound 7ab, 5-(4-((4-Methylpiperazin-1-yl)methyl)phenyl)-3-(3-(trifluoromethyl)phenyl)-1H-pyrrolo[2,3-b]pyridine] | 83.7% | 82.9% | 26.6% | 4.65% | 1280 nM | 60.7% | 60.7% | 68.47% | 70.51% | –
CN1CCN(Cc2ccc(-c3cnc4[nH]cc(-c5ccc(N)cc5)c4c3)cc2)CC1 [Compound 7e, 4-(5-(4-((4-Methylpiperazin-1-yl)methyl)phenyl)-1H-pyrrolo[2,3-b]pyridin-3-yl)aniline] | 51.7% | 54% | 24% | 7.41% | 228 nM | 96.1% | 111% | 51.43% | 54.29% | –
CNC(=O)Nc1cccc(-c2c[nH]c3ncc(-c4ccc(CN5CCN(C)CC5)cc4)cc23)c1 [Compound 7ak, 1-Methyl-3-(3-(5-(4-((4-methylpiperazin-1-yl)methyl)phenyl)-1H-pyrrolo[2,3-b]pyridin-3-yl)phenyl)urea] | 34.2% | 32.8% | 41.7% | 14.2% | 650 nM | 78.5% | 112% | 48.06% | 48.02% | –
CN1CCN(Cc2ccc(-c3cnc4[nH]cc(-c5ccc(F)c(C(=O)NCc6ccco6)c5)c4c3)cc2)CC1 [Compound 7av, 2-Fluoro-N-(furan-2-ylmethyl)-5-(5-(4-((4-methylpiperazin-1-yl)methyl)phenyl)-1H-pyrrolo[2,3-b]pyridin-3-yl)benzamide] | 86% | 84.2% | 88.8% | 51.2% | 1050 nM | 34.5% | 53.5% | 84.24% | 86.99% | –
